Source: patent US12054562B2, “Cell-permeable inhibitory agent and methods of use thereof in treatment of cognitive and mood disorders” (priority 2015, dated 2024)

How the values were obtained:
[1] = system: GABAA receptor-mediated tonic current in hippocampal neurons; assay: Whole-cell voltage-clamp recordings of tonic current in astrocyte-neuron co-cultures; format: cell-based, mouse; conditions: neurons grown in co-cultures
[2] = system: α5GABAA receptor cell-surface expression; assay: Receptor cell-surface ELISA assay in cultured hippocampal neurons; format: cell-based, mouse; conditions: peptide 2 μM, 24 hrs, astrocyte-conditioned medium (etomidate 1 μM, 1 hr)
Description: This experimental cell culture model was used to test the effects of the inhibitory peptide on an overexpression of α5GABAA receptors on the surface of neurons. The medium from astrocytes that were treated with etomidate (1 μM, 1 hr) (conditioned medium) was collected, and the medium bathing cultured hippocampal neurons was exchanged with the astrocyte-conditioned medium. The cells were incubated at 37° C., 5% CO2 with the peptide or scramble peptide (2 μM). After 24 hrs incubation, the cells were used for receptor cell-surface ELISA assay. The cells were fixed in 4% paraformaldehyde for 20 min in the presence (permeabilized) or absence (non-permeabilized) of 1% Triton-X100. The cells, after 3 times wash with cold PBS and blocked with 5% bovine album solution, were incubated with a α5 antibody (Santa Cruz Biotech Inc.) at 4° C. overnight. The next day the cells were thoroughly washed with PBS and incubated with the horseradish peroxidase (HRP)-conjugated secondary antibody for 2 hrs. With HRP substrate added and color developed in the medium, the results were determined with microplate reader.
The cell surface expression of α5 subunit was presented as the ratio of the colorimetric reading under non-permeabilized conditions to those permeabilized conditions. Consistent with the previous report, etomidate increases α5GABAA receptor surface expression. This increase was blocked by the specific peptide, but not the scramble peptide (FIG. 6A).
For astrocyte culture, cortical astrocytes were isolated from embryonic day 18 (E18) mouse embryos. Cells were allowed to grow to confluence in MEM and 10% fetal bovine serum (FBS; Life Technologies, Grand Island, New York) for 14 d. Cells were then enzymatically dissociated with trypsin-EDTA (0.05%; Life Technologies, Grand Island, New York), and passaged three times to obtain a nearly pure astrocytic culture. Astrocytes were then plated at a density of 25,000 cells per dish. […]

FC(F)OC(Cl)C(F)(F)F (stereo not shown) [isoflurane]
tonic current ([1]; ISO, 250 μM): persistent increase

Cc1ncc2n1-c1ccc(Cl)cc1C(c1ccccc1F)=NC2 [midazolam]
tonic current ([1]; MDZ, 200 nM): persistent increase

CC(C)c1cccc(C(C)C)c1O [propofol]
tonic current ([1]; Prop, 3 μM): persistent increase

FCOC(C(F)(F)F)C(F)(F)F [sevoflurane]
tonic current ([1]; SEVO, 266 μM): persistent increase

AWDGKKAL (listed as Homo sapiens) [Peptide C8, N-terminal truncated peptide, positions 350-357]
etomidate-induced increase in α5GABAA receptor surface expression [2]: prevented

DGKKAL (listed as Homo sapiens) [Peptide C6, N-terminal truncated peptide, positions 352-357]
etomidate-induced increase in α5GABAA receptor surface expression [2]: did not

GWAWDGKKAL (listed as Homo sapiens) [Peptide C10, N-terminal truncated peptide, positions 348-357]
etomidate-induced increase in α5GABAA receptor surface expression [2]: prevented

KKAL (listed as Homo sapiens) [Peptide C4, N-terminal truncated peptide, positions 354-357]
etomidate-induced increase in α5GABAA receptor surface expression [2]: did not

KRGWAWDGKKAL (listed as Homo sapiens) [α5pΔN4]
etomidate-induced increase in α5GABAA receptor surface expression [2]: retains the inhibitory function

NYFTKRGWAWDG (listed as Homo sapiens) [α5pΔC4]
etomidate-induced increase in α5GABAA receptor surface expression [2]: lost the inhibitory function
